Active and inactive are the calls of the source. The rule behind the calls is not given here.
These compounds were tested on iNKT (assay: Induction of IL4/IL13 production in mouse iNKT cells).
Type: functional, cell-based

How did the Activity turn out when `CCCCCCCCCCCCCCCCCCCCCCCCCC(=O)N[C@@H](CO[C@H]1O[C@H](CO)[C@H](O)[C@H](O)[C@H]1O)[C@H](O)[C@@H](O)CCCCCCCCCCCCCC` was run?
Its Activity is “Active”.

`CCCCCCCCCCCCCCCCCCCCCCCCCC(=O)N[C@@H](CO[C@H]1O[C@H](CO)[C@H](O)[C@H](O)[C@H]1O)[C@H](O)[C@H](O)CCCCCCCCCCCCCC` was tested. Which Activity did it give?
The Activity was “Active”.

These compounds were tested on iNKT (assay: Induction of proliferation in mouse iNKT cells).
Type: functional, cell-based

`CCCCCCCCCCCCCCCCCCCCCCCCCC(=O)N[C@H](CO[C@H]1O[C@H](CO)[C@H](O)[C@H](O)[C@H]1O)[C@@H](O)[C@@H](O)CCCCCCCCCCCCCC` was tested. Which Activity did it give?
The Activity was “Active”.

Which Activity does the source give for `CCCCCCCCCCCCCCCCCCCCCCCCCC(=O)N[C@@H](CO[C@H]1O[C@H](CO)[C@H](O)[C@H](O)[C@H]1O)[C@@H](O)[C@H](O)CCCCCCCCCCCCCC` here?
Its Activity is “Active”.

For `CCCCCCCCCCCCCCCCCCCCCCCCCC(=O)N[C@@H](CO[C@H]1O[C@H](CO)[C@H](O)[C@H](O)[C@H]1O)[C@H](O)[C@@H](O)CCCCCCCCCCCCCC`, which Activity is on record?
Its Activity is “Active”.

Which Activity does the source give for `CCCCCCCCCCCCCCCCCCCCCCCCCC(=O)N[C@@H](CO[C@H]1O[C@H](CO)[C@H](O)[C@H](O)[C@H]1O)[C@H](O)[C@H](O)CCCCCCCCCCCCCC` here?
The Activity was “Active”.

What follows are compounds tested on iNKT (assay: Induction of IFN-gamma production in human iNKT cells).
Type: functional, cell-based

How did the Activity turn out when `CCCCCCCCCCCCCCCCCCCCCCCCCC(=O)N[C@@H](CO[C@H]1O[C@H](CO)[C@H](O)[C@H](O)[C@H]1O)[C@@H](O)[C@@H](O)CCCCCCCCCCCCCC` was run?
The Activity was “Active”.

For `CCCCCCCCCCCCCCCCCCCCCCCCCC(=O)N[C@@H](CO[C@H]1O[C@H](CO)[C@H](O)[C@H](O)[C@H]1O)[C@@H](O)[C@H](O)CCCCCCCCCCCCCC`, which Activity is on record?
The Activity was “Active”.

`CCCCCCCCCCCCCCCCCCCCCCCCCC(=O)N[C@H](CO[C@H]1O[C@H](CO)[C@H](O)[C@H](O)[C@H]1O)[C@H](O)[C@H](O)CCCCCCCCCCCCCC` was tested. Which Activity did it give?
Its Activity is “inactive”.

Which Activity does the source give for `CCCCCCCCCCCCCCCCCCCCCCCCCC(=O)N[C@@H](CO[C@H]1O[C@H](CO)[C@H](O)[C@H](O)[C@H]1O)[C@H](O)[C@@H](O)CCCCCCCCCCCCCC` here?
The Activity was “Active”.

With `CCCCCCCCCCCCCCCCCCCCCCCCCC(=O)N[C@@H](CO[C@H]1O[C@H](CO)[C@H](O)[C@H](O)[C@H]1O)[C@H](O)[C@H](O)CCCCCCCCCCCCCC` as the compound, how does the Activity read?
Its Activity is “Active”.

These compounds were tested on iNKT (assay: Induction of IL4 production in human iNKT cells).
Type: functional, cell-based

For `CCCCCCCCCCCCCCCCCCCCCCCCCC(=O)N[C@@H](CO[C@H]1O[C@H](CO)[C@H](O)[C@H](O)[C@H]1O)[C@@H](O)[C@@H](O)CCCCCCCCCCCCCC`, which Activity is on record?
The Activity was “Active”.

Which Activity does the source give for `CCCCCCCCCCCCCCCCCCCCCCCCCC(=O)N[C@@H](CO[C@H]1O[C@H](CO)[C@H](O)[C@H](O)[C@H]1O)[C@@H](O)[C@H](O)CCCCCCCCCCCCCC` here?
The Activity was “Active”.

Which Activity does the source give for `CCCCCCCCCCCCCCCCCCCCCCCCCC(=O)N[C@H](CO[C@H]1O[C@H](CO)[C@H](O)[C@H](O)[C@H]1O)[C@H](O)[C@H](O)CCCCCCCCCCCCCC` here?
Its Activity is “inactive”.

How did the Activity turn out when `CCCCCCCCCCCCCCCCCCCCCCCCCC(=O)N[C@@H](CO[C@H]1O[C@H](CO)[C@H](O)[C@H](O)[C@H]1O)[C@H](O)[C@@H](O)CCCCCCCCCCCCCC` was run?
Its Activity is “Active”.

With `CCCCCCCCCCCCCCCCCCCCCCCCCC(=O)N[C@@H](CO[C@H]1O[C@H](CO)[C@H](O)[C@H](O)[C@H]1O)[C@H](O)[C@H](O)CCCCCCCCCCCCCC` as the compound, how does the Activity read?
Its Activity is “Active”.

What follows are compounds tested on iNKT (assay: Induction of IL13 production in human iNKT cells).
Type: functional, cell-based

`CCCCCCCCCCCCCCCCCCCCCCCCCC(=O)N[C@@H](CO[C@H]1O[C@H](CO)[C@H](O)[C@H](O)[C@H]1O)[C@@H](O)[C@@H](O)CCCCCCCCCCCCCC` was tested. Which Activity did it give?
Its Activity is “Active”.

Which Activity does the source give for `CCCCCCCCCCCCCCCCCCCCCCCCCC(=O)N[C@@H](CO[C@H]1O[C@H](CO)[C@H](O)[C@H](O)[C@H]1O)[C@@H](O)[C@H](O)CCCCCCCCCCCCCC` here?
Its Activity is “Active”.

How did the Activity turn out when `CCCCCCCCCCCCCCCCCCCCCCCCCC(=O)N[C@@H](CO[C@H]1O[C@H](CO)[C@H](O)[C@H](O)[C@H]1O)[C@H](O)[C@@H](O)CCCCCCCCCCCCCC` was run?
The Activity was “Active”.

With `CCCCCCCCCCCCCCCCCCCCCCCCCC(=O)N[C@@H](CO[C@H]1O[C@H](CO)[C@H](O)[C@H](O)[C@H]1O)[C@H](O)[C@H](O)CCCCCCCCCCCCCC` as the compound, how does the Activity read?
The Activity was “Active”.

What follows are compounds tested on iNKT (assay: Induction of IL4 production in mouse iNKT cells).
Type: functional, cell-based

How did the Activity turn out when `CCCCCCCCCCCCCCCCCCCCCCCCCC(=O)N[C@@H](CO[C@H]1O[C@H](CO)[C@H](O)[C@H](O)[C@H]1O)[C@@H](O)[C@@H](O)CCCCCCCCCCCCCC` was run?
The Activity was “Active”.

For `CCCCCCCCCCCCCCCCCCCCCCCCCC(=O)N[C@@H](CO[C@H]1O[C@H](CO)[C@H](O)[C@H](O)[C@H]1O)[C@@H](O)[C@H](O)CCCCCCCCCCCCCC`, which Activity is on record?
The Activity was “Active”.

With `CCCCCCCCCCCCCCCCCCCCCCCCCC(=O)N[C@H](CO[C@H]1O[C@H](CO)[C@H](O)[C@H](O)[C@H]1O)[C@@H](O)[C@H](O)CCCCCCCCCCCCCC` as the compound, how does the Activity read?
Its Activity is “Active”.

The compounds below were run on iNKT (assay: Induction of IFN-gamma production in mouse iNKT cells).
Type: functional, cell-based

How did the Activity turn out when `CCCCCCCCCCCCCCCCCCCCCCCCCC(=O)N[C@@H](CO[C@H]1O[C@H](CO)[C@H](O)[C@H](O)[C@H]1O)[C@H](O)[C@@H](O)CCCCCCCCCCCCCC` was run?
Its Activity is “Active”.

Which Activity does the source give for `CCCCCCCCCCCCCCCCCCCCCCCCCC(=O)N[C@@H](CO[C@H]1O[C@H](CO)[C@H](O)[C@H](O)[C@H]1O)[C@H](O)[C@H](O)CCCCCCCCCCCCCC` here?
The Activity was “Active”.

From ChEMBL document CHEMBL1155102, “Synthesis of all stereoisomers of KRN7000, the CD1d-binding NKT cell ligand” (Bioorg Med Chem Lett, 2008)
